Activity calls are given as the source filed them. The calls are words filed in the database; no cut-off is given here.
What was measured:
[1] = target: T1, P2X purinoceptor 7 (Homo sapiens) (UniProt Q99572); test: Antagonist activity at human P2X7 receptor expressed in HEK293 cells assessed as inhibition of ATP-induced receptor pore formation at 10 uM by propidium iodide dye uptake based fluorescence analysis; assay type: cell-based; settings: filed as antagonist
T1 sequence (whole entry): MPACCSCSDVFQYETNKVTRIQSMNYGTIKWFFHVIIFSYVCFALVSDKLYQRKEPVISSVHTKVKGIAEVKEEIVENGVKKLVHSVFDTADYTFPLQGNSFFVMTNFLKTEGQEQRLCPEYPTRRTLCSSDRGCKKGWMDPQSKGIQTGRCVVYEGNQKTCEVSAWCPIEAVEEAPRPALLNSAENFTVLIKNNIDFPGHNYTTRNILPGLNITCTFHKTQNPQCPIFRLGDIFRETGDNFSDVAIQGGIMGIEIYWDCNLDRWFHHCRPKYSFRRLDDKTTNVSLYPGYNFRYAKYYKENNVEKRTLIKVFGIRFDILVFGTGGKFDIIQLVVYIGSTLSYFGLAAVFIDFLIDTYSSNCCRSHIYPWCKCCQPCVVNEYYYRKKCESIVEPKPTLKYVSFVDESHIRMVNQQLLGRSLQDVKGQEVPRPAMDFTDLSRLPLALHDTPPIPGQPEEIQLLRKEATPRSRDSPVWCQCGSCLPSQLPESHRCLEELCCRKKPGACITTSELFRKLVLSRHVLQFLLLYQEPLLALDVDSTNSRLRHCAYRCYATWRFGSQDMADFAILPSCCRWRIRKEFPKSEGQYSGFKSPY

[2] = target: T2, P2X purinoceptor 7 (Mus musculus) (UniProt Q9Z1M0); test: Antagonist activity at mouse P2X7 receptor expressed in HEK293 cells assessed as inhibition of ATP-induced receptor pore formation at 10 uM by propidium iodide dye uptake based fluorescence analysis; assay type: cell-based; settings: filed as antagonist
T2 sequence (whole entry): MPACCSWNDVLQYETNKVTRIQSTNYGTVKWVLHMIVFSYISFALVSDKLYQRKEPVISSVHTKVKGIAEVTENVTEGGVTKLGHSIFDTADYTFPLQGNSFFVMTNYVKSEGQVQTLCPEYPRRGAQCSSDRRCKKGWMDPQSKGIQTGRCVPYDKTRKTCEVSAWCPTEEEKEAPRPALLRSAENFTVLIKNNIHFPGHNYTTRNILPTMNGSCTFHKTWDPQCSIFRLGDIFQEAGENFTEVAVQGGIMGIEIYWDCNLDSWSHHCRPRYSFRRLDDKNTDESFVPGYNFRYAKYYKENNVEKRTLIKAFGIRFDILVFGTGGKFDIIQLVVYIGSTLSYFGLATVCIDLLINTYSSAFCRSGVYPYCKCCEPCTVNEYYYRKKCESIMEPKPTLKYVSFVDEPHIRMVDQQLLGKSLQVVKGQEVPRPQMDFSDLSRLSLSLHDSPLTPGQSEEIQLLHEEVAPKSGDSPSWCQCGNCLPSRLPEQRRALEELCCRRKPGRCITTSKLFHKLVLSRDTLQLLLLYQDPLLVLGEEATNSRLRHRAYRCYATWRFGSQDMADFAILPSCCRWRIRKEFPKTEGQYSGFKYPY

[3] = target: T1, P2X purinoceptor 7 (Homo sapiens); test: Antagonist activity at human P2X7 receptor expressed in HEK293 cells assessed as inhibition of ATP-induced receptor pore formation at 1 uM by propidium iodide dye uptake based fluorescence analysis; assay type: cell-based; settings: filed as antagonist
[4] = target: T2, P2X purinoceptor 7 (Mus musculus); test: Antagonist activity at mouse P2X7 receptor expressed in HEK293 cells assessed as inhibition of ATP-induced receptor pore formation at 1 uM by propidium iodide dye uptake based fluorescence analysis; assay type: cell-based; settings: filed as antagonist
[5] = target: T1, P2X purinoceptor 7 (Homo sapiens); test: Antagonist activity at human P2X7 receptor expressed in HEK293 cells assessed as inhibition of ATP-induced receptor pore formation at 200 nM by propidium iodide dye uptake based fluorescence analysis; assay type: cell-based
[6] = target: T2, P2X purinoceptor 7 (Mus musculus); test: Antagonist activity at mouse P2X7 receptor expressed in HEK293 cells assessed as inhibition of ATP-induced receptor pore formation at 200 nM by propidium iodide dye uptake based fluorescence analysis; assay type: cell-based; settings: filed as antagonist
[7] = Intrinsic clearance in human liver microsomes; assay type: ADME, Microsome; settings: read-out: CLH
[8] = Half life in human liver microsomes; assay type: ADME, Microsome
[9] = Intrinsic clearance in mouse liver microsomes; assay type: ADME, Microsome; settings: read-out: CLH
[10] = Half life in mouse liver microsomes; assay type: ADME, Microsome
P2X purinoceptor 7 [11] = target: T3, P2X purinoceptor 7 (Homo sapiens, UniProt Q99572); test: Antagonist activity at P2X7 receptor in human THP-1 cells assessed as inhibition of ATP-induced IL-1beta secretion pretreated with LPS for 3 hrs followed by incubation with compound for 40 mins followed by treatment with ATP for 1 hr by ELISA; assay type: cell-based
T3 sequence (Q99572 whole entry): T1 sequence (whole entry)

[12] = AUC(0 to t) in BALB/c mouse at 10 mg/kg, iv measured for 24 hrs by LC-MS/MS analysis; assay type: ADME, organism-based; parameters: time 24 hrs, dose 10 mg/kg, route iv; settings: in vivo
[13] = AUC(0 to t) in BALB/c mouse at 10 mg/kg, po measured for 24 hrs by LC-MS/MS analysis; assay type: ADME, organism-based; parameters: time 24 hrs, dose 10 mg/kg, route po; settings: in vivo
[14] = Clearance in BALB/c mouse at 10 mg/kg, iv measured for 24 hrs by LC-MS/MS analysis; assay type: ADME, organism-based; settings: in vivo
[15] = Clearance in BALB/c mouse at 10 mg/kg, po measured for 24 hrs by LC-MS/MS analysis; assay type: ADME, organism-based; settings: in vivo
[16] = Cmax in BALB/c mouse at 10 mg/kg, iv measured for 24 hrs by LC-MS/MS analysis; assay type: ADME, organism-based; parameters: time 24 hrs, dose 10 mg/kg, route iv; settings: in vivo
[17] = Cmax in BALB/c mouse at 10 mg/kg, po measured for 24 hrs by LC-MS/MS analysis; assay type: ADME, organism-based; parameters: time 24 hrs, dose 10 mg/kg, route po; settings: in vivo
[18] = Half life in BALB/c mouse at 10 mg/kg, iv measured for 24 hrs by LC-MS/MS analysis; assay type: ADME, organism-based; settings: in vivo
[19] = Half life in BALB/c mouse at 10 mg/kg, po measured for 24 hrs by LC-MS/MS analysis; assay type: ADME, organism-based; settings: in vivo
[20] = Tmax in BALB/c mouse at 10 mg/kg, iv measured for 24 hrs by LC-MS/MS analysis; assay type: ADME, organism-based; settings: in vivo
[21] = Tmax in BALB/c mouse at 10 mg/kg, po measured for 24 hrs by LC-MS/MS analysis; assay type: ADME, organism-based; settings: in vivo
[22] = Oral bioavailability in BALB/c mouse at 10 mg/kg measured for 24 hrs by LC-MS/MS analysis; assay type: ADME, organism-based; settings: in vivo
Mus musculus [23] = test: Reno-protective activity against LPS-induced acute kidney injury C57BL/6J mouse model assessed as decrease in serum […] level at 10 mg/kg, ip administered twice at 30 mins prior to LPS challenge and 8 hrs post-LPS challenge and measured at 16 hrs post-LPS challenge; assay type: functional, organism-based; settings: time 16.5 hrs
Mus musculus [24] = test: Reno-protective activity against LPS-induced acute kidney injury C57BL/6J mouse model assessed as decrease in BUN level at 10 mg/kg, ip administered twice at 30 mins prior to LPS challenge and 8 hrs post-LPS challenge and measured at 16 hrs post-LPS challenge; assay type: functional, organism-based; settings: time 16.5 hrs
P2X purinoceptor 7 [25] = target: T3, P2X purinoceptor 7; test: Antagonist activity at human P2X7 receptor expressed in HEK293 cells assessed as inhibition of ATP-induced receptor pore formation by propidium iodide dye uptake based fluorescence analysis; assay type: cell-based
P2X purinoceptor 7 [26] = target: T4, P2X purinoceptor 7 (Mus musculus, UniProt Q9Z1M0); test: Antagonist activity at mouse P2X7 receptor expressed in HEK293 cells assessed as inhibition of ATP-induced receptor pore formation by propidium iodide dye uptake based fluorescence analysis; assay type: cell-based
T4 sequence (Q9Z1M0 whole entry): T2 sequence (whole entry)

P2X purinoceptor 7 [27] = target: T3, P2X purinoceptor 7; test: Antagonist activity at human P2X7 receptor
HEK293 [28] = test: Cytotoxicity against human HEK293 cells transfected with human P2X7 receptor assessed as effect on cell viability at 1 to 4 uM incubated for 2 hrs by CCK8 assay; assay type: toxicity, cell-based; settings: hek293, 2 h, dose 1-4 µM
HEK293 [29] = test: Cytotoxicity against human HEK293 cells transfected with mouse P2X7 receptor assessed as effect on cell viability at 1 to 4 uM incubated for 2 hrs by CCK8 assay; assay type: toxicity, cell-based; settings: hek293, 2 h, dose 1-4 µM
THP-1 = test: Cytotoxicity against human THP-1 cells assessed as effect on cell viability at 1 to 4 uM incubated for 2 hrs by CCK8 assay; assay type: toxicity, cell-based; settings: thp-1, 2 h, dose 1-4 µM
[30] = AUC(0 to t) in BALB/c mouse at 10 mg/kg, ip measured for 24 hrs by LC-MS/MS analysis; assay type: ADME, organism-based; parameters: dose 10 mg/kg, time 24 hrs, route ip; settings: in vivo
[31] = Clearance in BALB/c mouse at 10 mg/kg, ip measured for 24 hrs by LC-MS/MS analysis; assay type: ADME, organism-based; settings: in vivo
[32] = Cmax in BALB/c mouse at 10 mg/kg, ip measured for 24 hrs by LC-MS/MS analysis; assay type: ADME, organism-based; parameters: dose 10 mg/kg, time 24 hrs, route ip; settings: in vivo
[33] = Half life in BALB/c mouse at 10 mg/kg, ip measured for 24 hrs by LC-MS/MS analysis; assay type: ADME, organism-based; settings: in vivo
[34] = Tmax in BALB/c mouse at 10 mg/kg, ip measured for 24 hrs by LC-MS/MS analysis; assay type: ADME, organism-based; settings: in vivo

Row | inhibition [3] [%] | inhibition [4] [%] | inhibition ([5]; filed as antagonist) [%] | inhibition [6] [%] | CLint scaled [7] [mL/min/kg] | half-life [8] [h] | CLint scaled [9] [mL/min/kg] | half-life [10] [h] | IC50 (P2X purinoceptor 7 [11]) [nM] | AUC(0-t) at 24 h [12] [ng·h/mL] | AUC(0-t) at 24 h [13] [ng·h/mL] | clearance [14] [mL/min/kg] | CL/F [15] [mL/min/kg] | Cmax [16] [ng/mL] | Cmax [17] [ng/mL] | half-life [18] [h] | half-life [19] [h] | Tmax [20] [h] | IC50 (P2X purinoceptor 7 [25]) [nM] | IC50 (P2X purinoceptor 7 [26]) [nM] | Structure (SMILES) | also measured
1 | 95.2 | 92 | 93.8 | 87.3 | 40.9 | 0.709 | 88.2 | 1.03 | < 30 | 310 | 155 | 538 | 1080 | 516 | 270 | 0.77 | 0.8 | 0.08 | – | – | O=C(NCC1(N2CCN(c3ccccc3)CC2)CCOCC1)c1cccnc1Sc1ccccc1 | inhibition [1]: 92%; inhibition [2]: 89%; Tmax [21]: 0.08 h; bioavailability [22]: 49.9%; Activity (Mus musculus [23]): Active; Activity (Mus musculus [24]): Active
2 | 86.1 | 78.2 | 55.2 | 54.3 | 15.3 | 1.89 | 154 | 0.589 | – | – | – | – | – | – | – | – | – | – | 99.6 | 104 | O=C(NCc1cn(-c2cc(Cl)ccn2)nn1)c1cnc(-c2ccc(NS(=O)(=O)N3CCOCC3)cc2)s1 | –
3 | 56.3 | 92.6 | – | 67.6 | 40.4 | 0.717 | 66.2 | 1.38 | – | – | – | – | – | – | – | – | – | – | 659 | 344 | CC(C)S(=O)(=O)c1ccc(-c2ncc(C(=O)NCc3cn(-c4cc(Cl)ccn4)nn3)s2)cc1 | inhibition [5]: 22.1%
4 | – | – | – | – | – | – | – | – | – | – | – | – | – | – | – | – | – | – | – | – | CC1=C(C(c2ccc(Cl)cc2)n2cc(COCc3ccco3)nn2)C(=O)c2ccccc2C1=O (configuration not stated) | IC50 (P2X purinoceptor 7 [27]): 103 nM
5 | 100 | 114 | 56.9 | 114 | < 12 | > 2 | < 12 | > 2 | 289 | 40900 | 7140 | 3.67 | 26.3 | 3410 | 1010 | 7.87 | 2.66 | 1.39 | 166 | 12.2 | CS(=O)(=O)c1ccc(-c2ncc(C(=O)NCc3cn(-c4cc(Br)ccn4)nn3)s2)cc1 | Activity (HEK293 [28]): Non-Toxic; Activity (HEK293 [29]): Non-Toxic; Activity (THP-1): Non-Toxic; Tmax [21]: 2 h; bioavailability [22]: 17.5%; AUC(0-t) at 24 h [30]: 24400 ng·h/mL; CL/F [31]: 6.83 mL/min/kg; Cmax [32]: 3660 ng/mL; half-life [33]: 8.17 h; Tmax [34]: 4 h; Activity (Mus musculus [23]): Active; Activity (Mus musculus [24]): Active

Reference: ChEMBL document CHEMBL5360655, “Design, Synthesis, and Biological Evaluation of Novel P2X7 Receptor Antagonists for the Treatment of Septic Acute Kidney Injury” (J Med Chem, 2023)
